# Laboratory results from patent publication EP0536419B1, “TRICYCLIC TRIAZOLE DERIVATIVES, PRODUCTION AND USE THEREOF” (TORAY INDUSTRIES, INC., priority 1991, dated 1992).
# Counter-ions that a name gives are not always drawn.
# Key:
# rabbit platelets = rabbit platelets (Oryctolagus cuniculus, UniProt G1TEI7); assay: in vitro platelet agglutination inhibition test (PAF-induced); format: cell-based; settings: rabbit platelet-rich plasma, PAF final concentration 10 ng/ml, 37°C; read-out: PAF-Induced Platelet Aggregation IC50 (converted)
# Procedure: To determine the PAF-antagonizing property of the compounds, the PAF-induced agglutination of rabbit platelets in vitro is utilized. To obtain platelet-rich plasma (PRP), venous blood is taken from rabbit auricular vein into a plastic centrifugal tube containing 1.0% sodium citrate solution. The ratio of sodium citrate solution to blood is 1:10. The obtained citrate-containing blood is centrifuged at 70 x g (625 rpm) at room temperature for 20 minutes and the PRP in the upper layer is transferred to another plastic tube. The remaining lower layer is further centrifuged at 1500 x g (2800 rpm) for 10 minutes and the platelet poor plasma (PPP) in the upper layer is recovered. The platelet agglutination is measured by using aggregometer commercially available from Niko Bioscience, Inc. An aliquote of the PRP is poured into a cubette for measurement. Immediately thereafter, aspirin, creatinin phosphate and creatinin phosphokinase are added to final concentrations of 0.1 mM, 7 mM and 45 U/ml, respectively. Then a solution of a test compound is added and the resulting mixture is stirred at 37°C for 2 minutes. To the resultant, PAF (final concentration: 10 ng/ml) is added to induce platelet aggregation. The platelet aggregation rate is calculated from the relative maximum value in each aggregation curve taking the transmittance of PPP as the maximum aggregation (100% aggregation). Using the aggregation rate when physiological saline was added as a control, the inhibition rate which was the ratio of the aggregation rate when the test compound was added to the control was calculated and the IC50 values were determined by interpolation.
# PAF receptor = biological target: T1, PAF receptor (Oryctolagus cuniculus, UniProt G1TEI7); assay: Binding test using [3H]-PAF (PAF receptor binding test); parameters: species or system rabbit; settings: rabbit platelet membrane fraction, [3H]-PAF 0.4 nM, 25°C, 60 minutes; read-out: Receptor Binding Inhibition IC50 (converted)
# T1 construct: Cell membrane fraction of rabbit platelets was prepared; from tissue; host or cells: rabbit platelets (cell membrane fraction)
# T1 sequence (G1TEI7 1-342): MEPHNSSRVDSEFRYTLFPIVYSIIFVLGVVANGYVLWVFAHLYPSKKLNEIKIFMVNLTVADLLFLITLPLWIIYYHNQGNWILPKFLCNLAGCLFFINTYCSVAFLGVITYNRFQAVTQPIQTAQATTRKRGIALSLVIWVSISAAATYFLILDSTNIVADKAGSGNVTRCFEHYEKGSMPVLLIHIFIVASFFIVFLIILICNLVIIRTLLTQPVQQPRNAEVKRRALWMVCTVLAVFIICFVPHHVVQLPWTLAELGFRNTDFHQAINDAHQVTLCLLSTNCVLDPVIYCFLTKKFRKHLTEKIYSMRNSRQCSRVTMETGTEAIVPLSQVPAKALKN
# Procedure: Binding Test Using [^3H]-PAF (PAF receptor binding test)
# Cell membrane fraction of rabbit platelets was prepared in accordance with the method by Hwang et al (Biochemistry; 22; 4756, (1983)). In 10 mM Tris buffer containing 0.25% bovine serum albumin, 50 mg of this membrane fraction was suspended and tritium-labelled PAF [^3H]-PAF; 0.4 nM) and a test compound were added thereto. After incubating the resulting mixture at 25°C for 60 minutes, the mixture was subjected to filtration through a filter paper made of glass fibers. The filter paper was washed with cold Tris buffer three times and then transferred to a vial. A scintillator was added thereto and the dose of radioactivity was measured with a liquid scintillation counter. The inhibition rate (binding ability) of the test compound was calculated according to the following equation and IC50 values were determined by interpolation. Inhibition Rate (%) = {1 - [((A - B))/((C - B))]} x 100 [formula] (wherein A represents amount bound in the presence of the compound, B represents amount bound by non-specific binding which is the dose of [^3H]-PAF bound radioactivity in the presence of 1 µM of PAF, and C represents total amount bound which is the dose of [^3H]-PAF bound radioactivity.
# As a control agent, WEB2086 (Japanese Laid-open Patent Application (Kokai) No. 65-176591) disclosed as a PAF-antagonist was used.
# Sequence of rabbit platelets (G1TEI7 1-342): as above
Structure (SMILES),IC50 (rabbit platelets) [nM],IC50 (PAF receptor) [nM]
"COc1cccc(C(O)(c2ccccc2)C2CCN(CCCN3Cc4nnc(C)n4-c4ccccc43)CC2)c1 (stereo not shown) [Compound 133, 4,5-dihydro-1-methyl-5-[3-[4-[hydroxy(3-methoxyphenyl)phenylmethyl]piperidin-1-yl]propyl] [1,2,4]triazolo[4,3-a]quinoxaline]",120,32.5
"Cc1cccc(C(O)(c2cccc(C)c2)C2CCN(CCCN3Cc4nnc(C)n4-c4ccccc43)CC2)c1 [Compound 134, 4,5-dihydro-1-methyl-5-[3-[4-[hydroxybis(3-tolyl)methyl]piperidin-1-yl]propyl][1,2,4]triazolo[4,3-a]quinoxaline]",97.8,9.58
"COc1cccc(C(O)(c2cccc(OC)c2)C2CCN(CCCN3Cc4nnc(C)n4-c4ccccc43)CC2)c1 [Compound 135, 4,5-dihydro-1-methyl-5-[3-[4-[hydroxybis(3-methoxyphenyl)methyl]piperidin-1-yl]propyl] [1,2,4]triazolo[4,3-a]quinoxaline]",1590,37.9
"COc1ccc(C(O)(c2ccc(OC)c(OC)c2)C2CCN(CCCN3Cc4nnc(C)n4-c4ccccc43)CC2)cc1OC [Compound 138, 4,5-dihydro-1-methyl-5-[3-[4-[hydroxybis(3,4-dimethoxyphenyl)methyl]piperidin-1-yl]propyl] [1,2,4]triazolo[4,3-a]quinoxaline]",1320,1170
"COc1cccc(C(=C2CCN(CCCN3Cc4nnc(C)n4-c4ccccc43)CC2)c2ccccc2)c1 [Compound 140, 4,5-dihydro-1-methyl-5-[3-[4-[(3-methoxyphenyl)phenylmethylene]piperidin-1-yl]propyl] [1,2,4]triazolo[4,3,a]quinoxaline]",475,11.9
"COc1ccc(C(=C2CCN(CCCN3Cc4nnc(C)n4-c4ccccc43)CC2)c2ccccc2)cc1OC [Compound 142, 4,5-dihydro-1-methyl-5-[3-[4-[(3,4-dimethoxyphenyl)phenylmethylene]piperidin-1-yl]propyl] [1,2,4]triazolo[4,3,a]quinoxaline]",952,162
"COc1cccc(C(=C2CCN(CCCN3Cc4nnc(C)n4-c4ccccc43)CC2)c2cccc(OC)c2)c1 [Compound 143, 4,5-dihydro-1-methyl-5-[3-[4-[bis(3-methoxyphenyl)methylene]piperidin-1-yl]propyl] [1,2,4]triazolo[4,3,a]quinoxaline]",411,74.7
"COc1ccccc1C(=C1CCN(CCCN2Cc3nnc(C)n3-c3ccccc32)CC1)c1ccccc1OC [Compound 145, 4,5-dihydro-1-methyl-5-[3-[4-[bis(2-methoxyphenyl)methylene]piperidin-1-yl]propyl] [1,2,4]triazolo[4,3,a]quinoxaline]",1700,411
"Cc1cccc(C(=C2CCN(CCCN3Cc4nnc(C)n4-c4ccccc43)CC2)c2cccc(C)c2)c1 [Compound 147, 4,5-dihydro-1-methyl-5-[3-[4-[bis(3-tolyl)methylene]piperidin-1-yl]propyl] [1,2,4]triazolo[4,3,a]quinoxaline]",173,67.5
"COc1ccc(C(=C2CCN(CCCN3Cc4nnc(C)n4-c4ccccc43)CC2)c2ccc(OC)cc2)cc1 [Compound 148, 4,5-dihydro-1-methyl-5-[3-[4-[bis(4-methoxyphenyl)methylene]piperidin-1-yl]propyl] [1,2,4]triazolo[4,3,a]quinoxaline]",597,54.1
"Cc1nnc2n1-c1ccccc1N(CCCN1CCC(=C(c3ccccc3)c3ccc(Cl)cc3)CC1)C2 [Compound 149, 4,5-dihydro-1-methyl-5-[3-[4-[(4-chlorophenyl)phenylmethylene]piperidin-1-yl]propyl] [1,2,4]triazolo[4,3,a]quinoxaline]",1080,206
"Cc1nnc2n1-c1ccccc1N(CCCN1CCC(=C(c3ccc(Cl)cc3)c3ccc(Cl)cc3)CC1)C2 [Compound 150, 4,5-dihydro-1-methyl-5-[3-[4-[bis(4-chlorophenyl)methylene]piperidin-1-yl]propyl] [1,2,4]triazolo[4,3,a]quinoxaline]",937,152
"Cc1nnc2n1-c1ccccc1N(CCCN1CCC(=C(c3ccccc3)c3ccc(C(F)(F)F)cc3)CC1)C2 [Compound 151, 4,5-dihydro-1-methyl-5-[3-[4-[[4-(trifluoromethyl)phenyl]phenylmethylene]piperidin-1-yl]propyl] [1,2,4]triazolo[4,3,a]quinoxaline]",1400,110
"Cc1nnc2n1-c1ccccc1N(CCCN1CCC(=C(c3ccccc3)c3cccc(Cl)c3)CC1)C2 [Compound 154, 4,5-dihydro-1-methyl-5-[3-[4-[(3-chlorophenyl)phenylmethylene]piperidin-1-yl]propyl] [1,2,4]triazolo[4,3,a]quinoxaline]",372,178
"Cc1nnc2n1-c1ccccc1N(CCCN1CCC(=C(c3cccc(Cl)c3)c3cccc(Cl)c3)CC1)C2 [Compound 155, 4,5-dihydro-1-methyl-5-[3-[4-[bis(3-chlorophenyl)methylene]piperidin-1-yl]propyl] [1,2,4]triazolo[4,3,a]quinoxaline]",2200,132
"Cc1nnc2n1-c1ccccc1N(CCCN1CCC(=C(c3ccccc3)c3ccc(N(C)C)cc3)CC1)C2 [Compound 156, 4,5-dihydro-1-methyl-5-[3-[4-[(4-dimethylaminophenyl)phenyimethylene]piperidin-1-yl]propyl] [1,2,4]triazolo[4,3,a]quinoxaline]",1120,55.9
"Cc1cccc(C(=C2CCN(CCCN3Cc4nnc(C)n4-c4ccccc43)CC2)c2ccccc2)c1 [Compound 160, 4,5-dihydro-1-methyl-5-[3-[4-[phenyl(3-tolyl)methylene]piperidin-1-yl]propyl] [1,2,4]triazolo[4,3,a]quinoxaline]",145,198
"Cc1nnc2n1-c1ccccc1N(CCCN1CCC(=C(c3ccco3)c3ccco3)CC1)C2 [Compound 161, 4,5-dihydro-1-methyl-5-[3-[4-[bis(2-furyl)methylene]piperidin-1-yl]propyl] [1,2,4]triazolo[4,3,a]quinoxaline]",1190,351
"Cc1nnc2n1-c1ccccc1N(CCCN1CCC(=C(c3ccccc3)c3ccc4ccccc4c3)CC1)C2 [Compound 163, 4,5-dihydro-1-methyl-5-[3-[4-[(2-naphthyl)phenylmethylene]piperidin-1-yl]propyl] [1,2,4]triazolo[4,3,a]quinoxaline]",609,342
"Cc1nnc2n1-c1ccccc1N(CCCN1CCC(=C(c3ccccc3)c3cccs3)CC1)C2 [Compound 164, 4,5-dihydro-1-methyl-5-[3-[4-[phenyl(2-thienyl)methylene]piperidin-1-yl]propyl] [1,2,4]triazolo[4,3,a]quinoxaline]",747,249
"Cc1nnc2n1-c1ccccc1N(CCCN1CCC(=C(c3cccs3)c3cccs3)CC1)C2 [Compound 165, 4,5-dihydro-1-methyl-5-[3-[4-[bis(2-thienyl)methylene]piperidin-1-yl]propyl] [1,2,4]triazolo[4,3,a]quinoxaline]",1520,820
"CCc1nnc2n(CCCN3CCC(c4c[nH]c5ccccc45)CC3)c3ccccc3n12 [Compound 193, 3-ethyl-9-[3-[4-(3-indolyl)piperidin-1-yl]propyl]-9H-[1,2,4]triazolo[4,3-a]benzimidazole fumaric acid salt]",1550,5340
"CCCc1nnc2n(CCCN3CCC(c4c[nH]c5ccccc45)CC3)c3ccccc3n12 [Compound 194, 3-propyl-9-[3-[4-(3-indolyl)piperidin-1-yl]propyl]-9H-[1,2,4]triazolo[4,3-a]benzimidazole fumaric acid salt]",80.8,1980
"Cc1nnc2n(CCCN3CCC(c4c[nH]c5ccc(Cl)cc45)CC3)c3ccccc3n12 [Compound 195, 3-methyl-9-[3-[4-(5-chloro-3-indolyl)piperidin-1-yl]propyl]-9H-[1,2,4]triazolo[4,3-a] benzimidazole]",313,246
"Cc1nnc2n(CCCN3CCC(c4c[nH]c5ccc(F)cc45)CC3)c3ccccc3n12 [Compound 196, 3-methyl-9-[3-[4-(5-fluoro-3-indolyl)piperidin-1-yl]propyl]-9H-[1,2,4]triazolo[4,3-a]benzimidazole]",30.2,557
"Cc1ccc2[nH]cc(C3CCN(CCCn4c5ccccc5n5c(C)nnc45)CC3)c2c1 [Compound 197, 3-methyl-9-[3-[4-(5-methyl-3-indolyl)piperidin-1-yl]propyl]-9H-[1,2,4]triazolo[4,3-a]benzimidazole]",586,75
"Cc1nnc2n(CCCN3CCC(C(O)(c4ccccc4)c4ccccc4)CC3)c3ccccc3n12 [Compound 198, 3-methyl-9-[3-[4-(hydroxydiphenylmethyl)piperidin-1-yl]propyl]-9H-[1,2,4]triazolo[4,3-a]benzimidazole fumaric acid salt]",124,353
"Cc1nnc2n(CCCN3CCC(OC(c4ccccc4)c4ccccc4)CC3)c3ccccc3n12 [Compound 200, 3-methyl-9-[3-[4-(diphenylmethoxy)piperidin-1-yl]propyl]-9H-[1,2,4]triazolo[4,3-a]benzimidazole fumaric acid salt]",38.6,50.4
"Cc1nnc2n(CCCN3CCC(=C(c4ccccc4)c4ccccc4)CC3)c3ccccc3n12 [Compound 201, 3-methyl-9-[3-[4-(diphenylmethylene)piperidin-1-yl]propyl]-9H-[1,2,4]triazolo[4,3-a]benzimidazole fumaric acid salt]",277,294
